Settings in all cases: 11-point 3-fold dilution, qPCR readout
On the technique in general: Real-time PCR tracks product formation cycle by cycle.

One assay addresses T1, FGFR1 (Homo sapiens, UniProt P11362).
T1 construct: made in house; host or cells: E. coli host derived from BL21, infected with T7 phage
Put plainly: Kinase binding assay (Kd), FGFR1. The protocol: (§1) Kinase-tagged T7 phage strains were prepared in an E. coli host derived from the BL21 strain. E. coli were grown to log-phase and infected with T7 phage and incubated with shaking at 32° C. until lysis. The lysates were centrifuged and filtered to remove cell debris. Streptavidin-coated magnetic beads were treated with biotinylated small molecule ligands for 30 minutes at room temperature to generate affinity resins for kinase assays. The liganded beads were blocked with excess biotin and washed with blocking buffer SeaBlock (Pierce), 1% BSA, 0.05% Tween 20, 1 mM DTT to remove unbound ligand and to reduce non-specific binding. Binding reactions were assembled by combining kinases, liganded affinity beads, and test compounds in 1× binding buffer (20% SeaBlock, 0.17×PBS, 0.05% Tween 20, 6 mM DTT).
(§2) Test compounds were prepared as 111X stocks in 100% DMSO. Kds were determined using an 11-point 3-fold compound dilution series with three DMSO control points. All compounds for Kd measurements are distributed by acoustic transfer (non-contact dispensing) in 100% DMSO. The compounds were then diluted directly into the assays such that the final concentration of DMSO was 0.9%. All reactions performed in polypropylene 384-well plate. Each was a final volume of 0.02 ml. The assay plates were incubated at room temperature with shaking for 1 hour and the affinity beads were washed with wash buffer (lx PBS, 0.05% Tween 20). The beads were then re-suspended in elution buffer (lx PBS, 0.05% Tween 20, 0.5 μM non-biotinylated affinity ligand) and incubated at room temperature with shaking for 30 minutes. The kinase concentration in the eluates was measured by qPCR.
(§3) Binding constants were calculated with a standard dose-response curve using the Hill equation: […]
(§4) The Hill Slope was set to −1. Curves were fitted using a non-linear least square fit with the Levenberg-Marquardt algorithm.

Another assay deals with T2, FGFR2 (Homo sapiens, UniProt P21802).
T2 construct: made in house; host or cells: E. coli host derived from BL21, infected with T7 phage
Kind of assay: Kinase binding assay (Kd), FGFR2. The method, then:
as §1, §2, §3, §4

A further assay concerns the target T3, FGFR3 (Homo sapiens, UniProt P22607).
T3 construct: made in house; host or cells: E. coli host derived from BL21, infected with T7 phage
Kind of assay: Kinase binding assay (Kd), FGFR3. The method, then: as §1, §2, §3, §4

The next assay has as its target T4, FGFR3 (V555M) (Homo sapiens, UniProt P22607, V555M).
T4 construct: made in house; host or cells: E. coli host derived from BL21, infected with T7 phage
Kind of assay: Kinase binding assay (Kd), FGFR3 (V555M). The method, then:
as §1, §2, §3, §4

In another assay the target is T5, FGFR4 (Homo sapiens, UniProt P22455).
T5 construct: made in house; host or cells: E. coli host derived from BL21, infected with T7 phage
Kind of assay: Kinase binding assay (Kd), FGFR4. The protocol: as §1, §2, §3, §4

T4 sequence (P22607 23-806 V555M): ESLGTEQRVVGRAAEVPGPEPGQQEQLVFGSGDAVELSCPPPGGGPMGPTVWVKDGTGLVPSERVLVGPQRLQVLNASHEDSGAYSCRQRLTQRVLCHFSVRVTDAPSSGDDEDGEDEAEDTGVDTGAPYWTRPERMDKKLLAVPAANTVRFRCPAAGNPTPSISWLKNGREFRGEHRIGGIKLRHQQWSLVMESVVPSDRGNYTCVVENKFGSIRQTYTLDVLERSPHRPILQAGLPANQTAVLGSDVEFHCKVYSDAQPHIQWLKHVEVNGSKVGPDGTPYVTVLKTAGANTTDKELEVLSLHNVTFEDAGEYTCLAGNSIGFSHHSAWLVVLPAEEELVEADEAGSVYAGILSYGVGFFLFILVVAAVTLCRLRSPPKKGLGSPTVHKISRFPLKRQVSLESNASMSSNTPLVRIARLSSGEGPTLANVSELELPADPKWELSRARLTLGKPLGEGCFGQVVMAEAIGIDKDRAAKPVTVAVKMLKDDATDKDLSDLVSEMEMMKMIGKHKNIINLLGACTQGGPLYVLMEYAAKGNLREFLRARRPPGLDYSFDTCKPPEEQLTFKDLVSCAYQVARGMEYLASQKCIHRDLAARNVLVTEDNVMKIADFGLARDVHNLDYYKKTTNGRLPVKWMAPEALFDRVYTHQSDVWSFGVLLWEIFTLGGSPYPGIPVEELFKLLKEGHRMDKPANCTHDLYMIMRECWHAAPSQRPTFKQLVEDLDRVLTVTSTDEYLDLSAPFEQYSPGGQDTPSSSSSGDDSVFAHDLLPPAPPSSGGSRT
T3 sequence (P22607 23-806): as the sequence (P22607 23-806 V555M) above, with M533V counted along it
T1 sequence (P11362 22-822): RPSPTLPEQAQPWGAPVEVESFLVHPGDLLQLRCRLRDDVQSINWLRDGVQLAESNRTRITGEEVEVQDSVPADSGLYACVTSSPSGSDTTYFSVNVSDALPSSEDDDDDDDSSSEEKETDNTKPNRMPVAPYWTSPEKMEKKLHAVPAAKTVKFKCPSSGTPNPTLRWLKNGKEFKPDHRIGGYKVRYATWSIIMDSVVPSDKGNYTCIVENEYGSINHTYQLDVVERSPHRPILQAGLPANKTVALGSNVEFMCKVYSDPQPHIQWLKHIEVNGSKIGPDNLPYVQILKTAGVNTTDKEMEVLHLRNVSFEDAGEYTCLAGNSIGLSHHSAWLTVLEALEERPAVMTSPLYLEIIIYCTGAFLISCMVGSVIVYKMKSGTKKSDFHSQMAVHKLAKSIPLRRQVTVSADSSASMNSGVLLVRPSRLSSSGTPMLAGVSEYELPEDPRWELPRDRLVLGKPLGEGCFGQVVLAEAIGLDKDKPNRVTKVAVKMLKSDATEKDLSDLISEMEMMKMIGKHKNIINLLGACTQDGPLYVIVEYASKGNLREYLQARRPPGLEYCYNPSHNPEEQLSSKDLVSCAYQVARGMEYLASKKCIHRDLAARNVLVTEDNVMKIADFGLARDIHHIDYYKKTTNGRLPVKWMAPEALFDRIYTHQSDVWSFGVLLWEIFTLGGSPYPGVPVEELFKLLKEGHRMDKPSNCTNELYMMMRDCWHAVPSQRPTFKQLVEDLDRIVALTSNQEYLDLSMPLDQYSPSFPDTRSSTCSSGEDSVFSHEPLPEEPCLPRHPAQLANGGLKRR
T5 sequence (P22455 22-802): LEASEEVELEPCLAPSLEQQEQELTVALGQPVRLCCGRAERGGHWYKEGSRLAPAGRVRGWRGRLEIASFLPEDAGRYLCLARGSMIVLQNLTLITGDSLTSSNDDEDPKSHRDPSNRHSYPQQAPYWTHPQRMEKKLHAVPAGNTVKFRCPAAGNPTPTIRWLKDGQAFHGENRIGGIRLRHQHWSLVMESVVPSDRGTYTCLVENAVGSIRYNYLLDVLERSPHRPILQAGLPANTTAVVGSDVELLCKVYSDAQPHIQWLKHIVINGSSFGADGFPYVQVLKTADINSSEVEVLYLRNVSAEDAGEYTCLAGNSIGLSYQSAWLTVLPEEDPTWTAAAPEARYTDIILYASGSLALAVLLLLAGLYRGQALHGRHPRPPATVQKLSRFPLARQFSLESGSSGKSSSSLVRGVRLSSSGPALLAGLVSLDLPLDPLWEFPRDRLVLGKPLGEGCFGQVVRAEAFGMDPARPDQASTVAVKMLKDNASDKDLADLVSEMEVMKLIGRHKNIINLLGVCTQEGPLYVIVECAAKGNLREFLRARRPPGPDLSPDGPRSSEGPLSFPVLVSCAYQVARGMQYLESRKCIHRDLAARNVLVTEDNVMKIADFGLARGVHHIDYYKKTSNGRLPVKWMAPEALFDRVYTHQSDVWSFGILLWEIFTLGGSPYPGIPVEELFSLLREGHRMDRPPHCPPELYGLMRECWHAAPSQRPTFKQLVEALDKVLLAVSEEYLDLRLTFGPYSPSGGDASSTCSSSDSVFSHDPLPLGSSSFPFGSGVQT
T2 sequence (P21802 22-821): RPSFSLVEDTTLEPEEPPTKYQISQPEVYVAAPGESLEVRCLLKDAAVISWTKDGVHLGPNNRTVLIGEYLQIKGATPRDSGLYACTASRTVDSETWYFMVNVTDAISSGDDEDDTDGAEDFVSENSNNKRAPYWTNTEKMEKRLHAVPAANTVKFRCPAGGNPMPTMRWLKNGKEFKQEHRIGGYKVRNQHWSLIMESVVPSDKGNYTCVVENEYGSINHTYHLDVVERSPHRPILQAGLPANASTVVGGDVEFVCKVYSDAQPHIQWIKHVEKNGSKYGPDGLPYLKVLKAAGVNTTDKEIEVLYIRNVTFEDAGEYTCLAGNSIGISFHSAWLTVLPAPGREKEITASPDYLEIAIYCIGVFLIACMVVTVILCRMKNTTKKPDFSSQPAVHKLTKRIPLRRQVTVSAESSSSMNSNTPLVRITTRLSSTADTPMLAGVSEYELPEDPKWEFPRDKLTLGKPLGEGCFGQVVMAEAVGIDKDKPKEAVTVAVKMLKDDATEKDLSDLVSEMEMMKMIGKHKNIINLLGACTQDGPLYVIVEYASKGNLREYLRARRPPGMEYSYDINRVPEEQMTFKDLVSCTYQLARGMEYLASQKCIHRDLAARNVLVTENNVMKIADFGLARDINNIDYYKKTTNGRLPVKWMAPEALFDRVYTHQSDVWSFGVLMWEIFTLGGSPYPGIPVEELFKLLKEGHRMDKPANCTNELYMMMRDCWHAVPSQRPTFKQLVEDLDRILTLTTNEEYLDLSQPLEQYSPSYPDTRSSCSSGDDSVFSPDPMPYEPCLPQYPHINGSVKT

On to `COc1cc(S(C)(=N)=O)ccc1Nc1nccc(-n2ccc3ccccc32)n1` (centres unmarked) [Example 43, 4-Indol-1-yl-N-[2-methoxy-4-(methylsulfonimidoyl)phenyl]-pyrimidin-2-amine], for which the Kd at FGFR1 came to 5000 nM; at FGFR2, 4000 nM; at FGFR3, 3400 nM; on FGFR3 (V555M), 680 nM; on FGFR4 it was 7500 nM.
For the compound `CN1CCS(=O)(=Nc2ccc(Nc3nccc(-n4ccc5ccccc54)n3)cc2)CC1` [Example 16, 4-Indol-1-yl-N-[4-[(4-methyl-1-oxo-1,4-thiazinan-1-ylidene)amino]phenyl]-pyrimidin-2-amine], the Kd came out at 2200 nM at FGFR1; 600 nM at FGFR2; 570 nM on FGFR3; 140 nM on FGFR3 (V555M); 9500 nM at FGFR4.
The corresponding values for `CS(C)(=O)=Nc1ccc(Nc2cc(-c3c[nH]c4ccccc34)ncn2)cc1` [Example 12, N-[4-[[dimethyl(oxo)-λ^6-sulfanylidene]amino]phenyl]-6-(1H-indol-3-yl)pyrimidin-4-amine] are 350 nM, 3300 nM, 370 nM, 57 nM and 57 nM.
For `N=S1(=O)CCN(c2ccc(Nc3ncc(Cl)c(-n4ccc5c(N)cccc54)n3)cc2)CC1` [Example 82, 1-[5-Chloro-2-[4-(1-imino-1-oxo-1,4-thiazinan-4-yl)anilino]pyrimidin-4-yl]indol-4-amine], the Kd turned out to be 59 nM at FGFR1; 50 nM on FGFR2; 42 nM at FGFR3; 2 nM at FGFR3 (V555M); 450 nM on FGFR4.
For `COc1cc(S(C)(=N)=O)ccc1Nc1ncc(C)c(-n2ccc3ccccc32)n1` (centres unmarked) [Example 42, 4-Indol-1-yl-N-[2-methoxy-4-(methylsulfonimidoyl)phenyl]-5-methyl-pyrimidin-2-amine], in that order: 3000 nM, 3300 nM, 1800 nM, 110 nM and 4200 nM.
For `COc1cc(N2CCS(=N)(=O)CC2)ccc1Nc1ncc(Cl)c(-n2ccc3ccccc32)n1` [Example 44, 5-Chloro-N-[4-(1-imino-1-oxo-1,4-thiazinan-4-yl)-2-methoxy-phenyl]-4-indol-1-yl-pyrimidin-2-amine], in that order: 2200 nM, 15000 nM, 2800 nM, 42 nM and 4100 nM.
For `C=CC(=O)Nc1ccc2c(ccn2-c2nc(Nc3ccc(N=S(C)(C)=O)c(F)c3)ncc2Cl)c1C` [Example 84, N-[1-[5-Chloro-2-[4-[[dimethyl(oxo)-λ^6-sulfanylidene]amino]-3-fluoro-anilino]pyrimidin-4-yl]-4-methyl-indol-5-yl]prop-2-enamide], in that order: 390 nM, 330 nM, 150 nM, 11 nM and 2300 nM.
In the case of `CS(C)(=O)=Nc1ccc(Nc2ncc(Cl)c(-c3c[nH]c4ccccc34)n2)cc1` [Example 8, 5-chloro-N-[4-[[dimethyl(oxo)-λ^6-sulfanylidene]amino]phenyl]-4-(1H-indol-3-yl)pyrimidin-2-amine], the Kd amounted to 19 nM on FGFR1; 24 nM on FGFR2; 29 nM on FGFR3; 4 nM at FGFR3 (V555M); 180 nM at FGFR4.
The corresponding values for `Cc1cnc(Nc2ccc(S(C)(=N)=O)cc2)nc1-c1c[nH]c2ccccc12` (centres unmarked) [Example 48, 4-(1H-Indol-3-yl)-5-methyl-N-[4-(methylsulfonimidoyl)-phenyl]pyrimidin-2-amine] are 7 nM, 6 nM, 16 nM, 2 nM and 160 nM.
For `C=CC(=O)Nc1ccc2c(-c3nc(Nc4ccc(S(C)(=N)=O)cc4)ncc3Cl)c[nH]c2c1` (centres unmarked) [Example 89, N-[3-[5-chloro-2-[4-(methylsulfonimidoyl)anilino]pyrimidin-4-yl]-1H-indol-6-yl]prop-2-enamide], in that order: 76 nM, 50 nM, 70 nM, 7.5 nM and 510 nM.
The corresponding values for `COc1c(N=S(C)(C)=O)cccc1Nc1ncc(Cl)c(-c2c[nH]c3ccccc23)n1` [Example 5, 5-chloro-N-[3-[[dimethyl(oxo)-λ^6-sulfanylidene]amino]-2-methoxy-phenyl]-4-(1H-indol-3-yl)pyrimidin-2-amine] are 3300 nM, 14000 nM, 4300 nM, 420 nM and 6200 nM.
For `COc1cc(Nc2ncc(C)c(-c3c[nH]c4c(OC)cccc34)n2)ccc1N=S(C)(C)=O` [Example 33, N-[4-[[dimethyl(oxo)-λ^6-sulfanylidene]amino]-3-methoxy-phenyl]-4-(7-methoxy-1H-indol-3-yl)-5-methyl-pyrimidin-2-amine], the dissociation constant (Kd) on FGFR1 turned out to be 4 nM; on FGFR2 it was 6 nM; at FGFR3, 19 nM; at FGFR3 (V555M) it was 2 nM; at FGFR4, 120 nM.
For `COc1cc(N2CCS(=N)(=O)CC2)ccc1Nc1ncc(C)c(-n2ccc3ccccc32)n1` [Example 46, N-[4-(1-imino-1-oxo-1,4-thiazinan-4-yl)-2-methoxy-phenyl]-4-indol-1-yl-5-methyl-pyrimidin-2-amine], in that order: 2700 nM, 4400 nM, 2200 nM, 160 nM and 5600 nM.
For `CCC(=O)Nc1ccc2c(ccn2-c2nc(Nc3ccc(N=S(C)(C)=O)cc3)ncc2Cl)c1` [Example 68, N-[1-[5-Chloro-2-[4-[[dimethyl(oxo)-λ^6-sulfanylidene]amino]anilino]-pyrimidin-4-yl]indol-5-yl]propanamide], in that order: 630 nM, 340 nM, 320 nM, 24 nM and 2400 nM.
For `C=CC(=O)Nc1cccc2c1ccn2-c1nc(Nc2ccc(N=S(C)(C)=O)cc2)ncc1Cl` [Example 76, N-[1-[5-Chloro-2-[4-[[dimethyl(oxo)-λ^6-sulfanylidene]amino]anilino]-pyrimidin-4-yl]indol-4-yl]prop-2-enamide], in that order: 160 nM, 370 nM, 160 nM, 12 nM and 3000 nM.
Regarding `COc1cc(N2CCS(=N)(=O)CC2)ccc1Nc1nccc(-n2ccc3ccccc32)n1` [Example 45, N-[4-(1-Imino-1-oxo-1,4-thiazinan-4-yl)-2-methoxy-phenyl]-4-indol-1-yl-pyrimidin-2-amine], the Kd at FGFR1 stood at 7800 nM; on FGFR2 it was 9000 nM; at FGFR3, 4900 nM; at FGFR3 (V555M), 1100 nM; at FGFR4 it was 5100 nM.
The corresponding values for `CS(C)(=O)=Nc1ccc(Nc2ncc(F)c(-c3c[nH]c4ccccc34)n2)cc1` [Example 59, N-[4-[[Dimethyl(oxo)-λ^6-sulfanylidene]amino]phenyl]-5-fluoro-4-(1H-indol-3-yl)pyrimidin-2-amine] are 18 nM, 50 nM, 22 nM, 11 nM and 130 nM.
The corresponding values for `C=CC(=O)Nc1ccc2c(c1)c(C)cn2-c1nc(Nc2ccc(N=S(C)(C)=O)cc2OCC)ncc1Cl` [Example 65, N-[1-[5-Chloro-2-[4-[[dimethyl(oxo)-λ^6-sulfanylidene]amino]-2-ethoxy-anilino]pyrimidin-4-yl]-3-methyl-indol-5-yl]prop-2-enamide] are 4000 nM, 7900 nM, 1700 nM, 970 nM and 1300 nM.
The corresponding values for `CCC(=O)Nc1cccc2c1ccn2-c1nc(Nc2ccc(N=S(C)(C)=O)cc2)ncc1Cl` [Example 77, N-[1-[5-Chloro-2-[4-[[dimethyl(oxo)-λ^6-sulfanylidene]amino]anilino]-pyrimidin-4-yl]indol-4-yl]propanamide] are 170 nM, 260 nM, 130 nM, 7 nM and 2600 nM.

Broadly, the Kd is the concentration at which binding is half-saturated. The low end stands for higher affinity, the high end for lower affinity.

Values taken from patent US20230115945A1, “AMINOPYRIMIDINE COMPOUNDS” (TYRA BIOSCIENCES, INC., priority 2019, published 2023).
